Laboratory results from patent publication US5942522A, “Antiviral compounds and antihypertensive compounds” (Schering Corporation, priority 1997, dated 1999).
In brackets after ≈: the same amount, converted by molar mass. Read-outs that look alike come from different tables or passages of the source.

Tests used:
HSV-2 (strain MS) = assay: HSV-β-Gal assay: transient expression of beta galactosidase in transfected HeLa cells superinfected with HSV-2; type: cell-based
Procedure: (§1) HeLa and Vero cell cultures were maintained in Eagles Minimal Essential Medium (EMEM) which was supplemented with glutamine, penicillin, streptomycin and 10% fetal calf serum (10% EMEM). Stock cultures of HSV-2 (strain MS available from ATCC VR-540) were grown in and harvested from Vero cells. Viral stocks were titered in Vero cells according to established procedures.
Plasmid pON 245^ori- contains the promoter of the HSV-1 thymidine kinase (tk) gene located immediately 5'of the E. coli lac Z gene. In this arrangement, the tk promoter controls transcription from the bacterial gene in transient expression assays. Additionally, an SV40 polyadenylation signal is present at the 3' end of the lac Z gene to allow for the efficient translation of the mRNA in eucaryotic cells. The expression of beta galactosidase in a transient assay using pON 245^ori- is dependent upon superinfection of the transfected cells with HSV. […] For example see U.S. application Ser. No. 07/435,491 filed Sep. 5, 1989, the disclosure of which is incorporated herein by reference thereto.
HeLa cells were seeded into 96 well microtiter plates and allowed to grow to 80% confluency (approximately 35000 cells/well). One half microgram of plasmid pON 245^ori- DNA was introduced into the cells of each well by the […] precipitation technique (Grahman and Van der Eb, 1973). Four to six hours later, the cells were rinsed with hank's Balanced Salt Solution (HBSS), overlaid with 10% EMEM and incubated at 37° C. At 24 hours post-transfection, cells were rinsed, overlaid with 10% EMEM again and re-incubated at 37° C. At 48 hours post-transfection, cells were rinsed and overlaid with either EMEM containing 2% fetal calf serum (2% EMEM), 2% EMEM containing HSV-2 (strain MS, Multiplicity of Infection [moi]=5 pfu/cell) or 2% EMEM containing HSV-2 and the appropriate concentration of Schering compound to be tested. Twenty-four hours later, the cells were harvested and assayed for beta galactosidase activity as described below.
All determinations of beta galactosidase activity were performed in 96 well microtiter plates. The intracellular level of beta galactosidase activity in each well was determined from cell lysates of the monolayer cultures. Aliquots were assayed by incubation in the presence of beta galactosidase substrate, 4-methylumbelliferyl-β-D-galactoside (MUG, 125 ug/ml, Sigma), for 2 hours. The generation of fluorescent product was quantified on a Microfluor microfluorimeter (Dynatech) after addition of 0.1M glycine, pH 10.3 (Spaete and Mocarski, 1985). The inhibitory activity of a compound was plotted versus the concentration and an IC50 value (the concentration of compound required to reduce beta glactosidase expression by 50%) was obtained for each compound tested.

[1] = Compound toxicity assay: inhibition of HeLa cell translation (3H-leucine incorporation); type: cell-based; conditions: human, HeLa cells
Procedure: as §1
HeLa cells were treated with inhibitory compound for 24 hours, after which levels of translational activity were assayed.
For assay of translational activity, HeLa cultures were grown to 80% confluency in 96 well microtiter plates, treated with appropriate concentrations of compound in 2% EMEM during an overnight incubation at 37° C., then rinsed with HBSS and overlaid with […] of 2% EMEM containing 8 uCi of tritiated leucine (^3 H-LEU, […], Amersham Corp., Arlington Heights, Ill.). After a 1 hour incubation at 36.5°C., the cells were rinsed twice with phosphate buffered saline (PBS) and lysed in 400 ul/well of 1×PBS, 0.5% sodium dodecyl sulphate (SDS). After a 10 min incubation at 36.5° C., the contents of the well were transferred to a well in a Millititer HA microfiltration plate (Millipore Corp., Bedford, Mass.). The TCA insoluble proteins were precipitated onto the filter disc by a 10 min fixation with 5% TCA, followed by filtration under vacuum and three 10 minute rinses with 95% ethanol. The filters were dried at room temperature, cut from the milltitier plate and transferred to scintillation vials. TCA precipitable counts were assayed in 5 ml of Scintisol (Isolab, Akron, Ohio). The inhibitory activity of a compound was plotted versus the concentration and an IC50 value (that concentration of the compound required to decrease cellular translational activity by 50%) was derived for each compound.

[2] = Human alphaherpesvirus 2, Table II, HeLa cells, HSV-2 strain MS, 24 h, read-out: Anti-HSV activity, HSV-β-GAL assay IC50
[3] = Table II, read-out: Cytotoxicity 3H-LEU assay IC50
[4] = Human alphaherpesvirus 2, HeLa, read-out: HSV: antiHSV activity, HSVβ-Gal Assay, IC50
[5] = Human alphaherpesvirus 2, Table II^1, HeLa cells, HSV-2 strain MS, 24 h, read-out: Anti-HSV activity HSV-β-Gal assay IC50
[6] = Human alphaherpesvirus 2, HeLa, 24 h, read-out: Anti-HSV activity, HSV-β-GAL assay IC50

Row | Molecule | IC50 (HSV-2 (strain MS); [2]) | CC50 at 24 h [1, 3] | also measured
1 | CCCCCCn1c(=O)c(Cn2ccnc2)c(OC)c2cc(C)ccc21 [Compound 11, 1-Hexyl-3-(1H-imidazol-1-ylmethyl)-4-methoxy-6-methyl-2(1H)-quinolinone] | 4.5 µg/mL (≈ 12.7 µM) | 17 µg/mL (≈ 48.1 µM) | 
2 | C=CCOC(=O)c1c(OC)c2cc(C)ccc2n(CCCCCC)c1=O [Compound 104] |  |  | IC50 (HSV-2 (strain MS); [4]): > 25 µg/mL
3 | Cc1c(OC(=O)c2cccs2)ccc2c(N)cc(=O)oc12 [Compound 66, 4-Amino-7-(Thiophene-2-carbonyloxy)-8-Methyl-Benzopyran-2-one] |  |  | IC50 (HSV-2 (strain MS); [5]): > 25 µg/mL
4 | CCOC(=O)c1c(OC)c2ccccc2n(C)c1=O [Compound 107] |  |  | IC50 (HSV-2 (strain MS); [4]): > 25 µg/mL
5 | CCCCCCn1c(=O)c(C2OCCO2)c(OC)c2cc(C)ccc21 [Compound 23, 1-Hexyl-3-[2-(1,3-dioxolano)]-4-methoxy-6-methyl-2(1H)-Quinolinone] | 9 µg/mL (≈ 26.1 µM) | > 100 µg/mL | 
6 | CCCCCCn1c(=O)c(C(=O)OCC)c(OC(=O)c2cccn2C)c2cc(C)ccc21 [Compound 103] |  |  | IC50 (HSV-2 (strain MS); [4]): 25 µg/mL (≈ 57 µM)
7 | 4-Amino-7-Acetyloxy-8-Methyl-Benzopyran-2-one [Compound 68] |  |  | Anti-HSV activity HSV-β-Gal assay IC50 (HSV-2 (strain MS); Table II^1, HeLa cells, HSV-2 strain MS, 24 h): 30.0 µg/mL
8 | Cc1c(OC(=O)c2ccco2)ccc2c(N)cc(=O)oc12 [Compound 65, 4-Amino-7-(2-Furoyloxy)-8-Methyl-Benzopyran-2-one] |  |  | IC50 (HSV-2 (strain MS); [5]): > 25 µg/mL
9 | CCCCCCn1c(=O)c(Cn2cnnn2)c(OC)c2ccccc21 [Compound 18, 1-Hexyl-3-(1-tetrazolymethyl)-4-methoxy-2(1H)-quinolinone] | 6 µg/mL (≈ 17.6 µM) | 18 µg/mL (≈ 52.7 µM) | 
10 | CCCCCCn1c(=O)c(Cn2cnnn2)c(OC)c2cc(C)ccc21 [Compound 14, 1-Hexyl-3-(1-Tetrazolylmethyl)-4-Methoxy-6-Methyl-2(1H)-Quinolinone] | 5 µg/mL (≈ 14.1 µM) | > 100 µg/mL | 
11 | Cc1cc2c(OCCN(C)C)c(SCO)c(=O)n(Cc3ccc(O[Si](C)(C)C(C)(C)C)cc3)c2cc1C [Compound 5] | 3 µg/mL (≈ 5.53 µM) | 15 µg/mL (≈ 27.6 µM) | 
12 | CCCCCCn1c(=O)c(Cn2ncnn2)c(OC)c2ccccc21 [Compound 6, 1-hexyl-3-(2-tetrazolylmethyl)-4-methoxy-2(1H)-quinolinone] |  | 7 µg/mL (≈ 20.5 µM) | IC50 (HSV-2 (strain MS); [6]): 3 µg/mL (≈ 8.79 µM)
13 | CCCCCCn1c(=O)c(C=NO)c(OC)c2cc(C)ccc21 [Compound 4, 1-Hexyl-3-Oximinomethyl-4-Methoxy-6-Methyl-2(1H )-Quinolinone] |  | 100 µg/mL (≈ 316 µM) | IC50 (HSV-2 (strain MS); [6]): 3 µg/mL (≈ 9.48 µM)
14 | CCCCCCn1c(=O)c(Cn2cnnc2)c(OC)c2cc(C)ccc21 [Compound 12, 1-hexyl-3-(1,2,4-triazol-4-ylmethyl)-4-methoxy-6-methyl-2(1H)-quinolinone] | 4.5 µg/mL (≈ 12.7 µM) | 32 µg/mL (≈ 90.3 µM) | 
15 | Cc1c(OC(=O)c2ccncc2)ccc2c(N)cc(=O)oc12 [Compound 67, 4-Amino-7-Isonicotinoxy-8-Methyl-Benzopyran-2-one] |  |  | IC50 (HSV-2 (strain MS); [5]): 14 µg/mL (≈ 47.3 µM)
16 | CCCCCCn1c(=O)c(Cn2cncn2)c(OC)c2cc(C)ccc21 [Compound 10, 1-Hexyl-3-(1,2,4-Triazol-1-ylmethyl)-4-Methoxy-6-Methyl-2(1H)-Quinolinone] | 4 µg/mL (≈ 11.3 µM) | > 100 µg/mL | 
17 | COc1c(CCO)c(=O)n(C)c2ccccc12 [Compound 106] |  |  | IC50 (HSV-2 (strain MS); [4]): > 25 µg/mL
18 | CCCCCCn1c(=O)c(C2NCCS2)c(OC)c2cc(C)ccc21 (stereo not shown) [Compound 8, 1-Hexyl-3-(2-thiazolidinyl)-4-methoxy-6-methyl-2(1H)-Quinolinone] |  | 3 µg/mL (≈ 8.32 µM) | IC50 (HSV-2 (strain MS); [6]): < 3 µg/mL

Row | Molecule | IC50 (HSV-2 (strain MS); [2]) | CC50 at 24 h [1, 3] | also measured
19 | CCCCCCn1c(=O)c(C(=O)O)c(OC)c2cc(C)ccc21 [Compound 105] |  |  | IC50 (HSV-2 (strain MS); [4]): > 25 µg/mL
20 | Cc1c(OC(=O)[C@H](C)NC(=O)OC(C)(C)C)ccc2c(N)cc(=O)oc12 [Compound 71, 4-Amino-7-(BOC-L-Alanyloxy)-8-Methyl-Benzopyran-2-one] |  |  | IC50 (HSV-2 (strain MS); [5]): > 25 µg/mL
21 | CC(=O)Oc1c(Sc2ccccc2)c(=O)n(C)c2ccc(F)cc12 [Compound 102] |  |  | IC50 (HSV-2 (strain MS); [4]): 21 µg/mL (≈ 61.2 µM)
22 | COc1c(Sc2ccccc2)c(=O)n(C)c2ccc(F)cc12 [Compound 22] | 8 µg/mL (≈ 25.4 µM) | 25 µg/mL (≈ 79.3 µM) | 
23 | COc1c(SC)c(=O)n(Cc2ccc(O[Si](C)(C)C(C)(C)C)cc2)c2cc(C)c(C)cc12 [Compound 1] | 1.5 µg/mL (≈ 3.19 µM) | 1.8 µg/mL (≈ 3.83 µM) | 
24 | CCCCCCn1c(=O)c(C=NOC)c(OC)c2cc(C)ccc21 [Compound 26, 1-Hexyl-3-Methoximinomethyl-4-Methoxy-6-Methyl-2(1H)-Quinolinone] | 7 µg/mL (≈ 21.2 µM) | 27 µg/mL (≈ 81.7 µM) | 
25 | CCOC(=O)c1c(OC(=O)c2ccc[nH]2)c2ccccc2n(C)c1=O [Compound 101] |  |  | IC50 (HSV-2 (strain MS); [4]): 20 µg/mL (≈ 58.8 µM); CC50 at 24 h ([1]; Table IV compound, read-out: Cytotoxicity 3H-Leu Assay IC50): 40 µg/mL (≈ 118 µM)
26 | CCCCCCn1c(=O)c(Cn2cncn2)c(OC)c2ccccc21 [Compound 16, 1-Hexyl-3(1,2,4-Triazol-1-ylmethyl)-4-Methoxy-2(1H)-Quinolinone] | 5 µg/mL (≈ 14.7 µM) | 18 µg/mL (≈ 52.9 µM) | 
27 | COc1c(SC)c(=O)n(Cc2ccc(O)cc2)c2cc(C)c(C)cc12 [Compound 25] | 10 µg/mL (≈ 28.1 µM) |  | 
28 | CCCCCCn1c(=O)c(C=NOC)c(OC)c2ccccc21 [Compound 3, 1-Hexyl-3-Methoximinomethyl-4-Methoxy-2(1H)-Quinolinone] | 2.5 µg/mL (≈ 7.9 µM) | 12.6 µg/mL (≈ 39.8 µM) | 
29 | CCCCCCn1c(=O)c(C2NCCS2)c(OC)c2ccccc21 (stereo not shown) [Compound 2, 1-Hexyl-3-(2-thiazolidinyl)-4-methoxy-2(1H)-Quinolinone] |  | 32 µg/mL (≈ 92.4 µM) | IC50 (HSV-2 (strain MS); [6]): 2 µg/mL (≈ 5.77 µM)
30 | CCCCCCn1c(=O)c(Cn2ncnn2)c(OC)c2cc(C)ccc21 [Compound 13, 1-hexyl-3-(2-tetrazolylmethyl)-4-methoxy-6-methyl-2(1H)-quinolinone] | 5 µg/mL (≈ 14.1 µM) | 17 µg/mL (≈ 47.8 µM) | 
31 | CCCCCCn1c(=O)c(C=NO)c(OC)c2ccccc21 [Compound 17, 1-Hexyl-3-Hydroximinomethyl-4-Methoxy-2(1H)-Quinolinone] | 6 µg/mL (≈ 19.8 µM) | 25 µg/mL (≈ 82.7 µM) | 
32 | CCCCCCn1c(=O)c(C2OCCO2)c(OC)c2ccccc21 [Compound 24] | 10 µg/mL (≈ 30.2 µM) |  | 
33 | CCCCCCn1c(=O)c(CBr)c(OC)c2ccccc21 [Compound 15, 1-Hexyl-3-Bromomethyl-4-Methoxy-2(1H)-Quinolinone] | 5 µg/mL (≈ 14.2 µM) | 25 µg/mL (≈ 71 µM) | 
34 | CCCCCCn1c(=O)c(C(=O)OCC)c(OC)c2cc(C)ccc21 [Compound 19, 1-hexyl-3-ethoxycarbonyl-4-methoxy-6-methyl-2(1H)-quinolinone] | 7 µg/mL (≈ 20.3 µM) |  | 
35 | CON=Cc1c(OC)c2ccccc2n(Cc2ccccc2)c1=O [Compound 20, 1-Benzyl-3-Methoxyiminomethyl-4-Methoxy-2(1H)-Quinolinone] | 7 µg/mL (≈ 21.7 µM) |  | 
